Legend:
[1] = Release rate during hair coloring (GC content after mixing developer mass with ammoniacal dye solution); type: physicochemical
Experimental: To determine the hydrolysis rate the three depot preparations DP Example 8, DP Example 9 and DP Example 10 were added to the developer mass in a concentration of in each case 0.3%. The ammoniacal dye solution, which consists of 2 to 16% ammonia and/or substitutes such as, for example, alkanolamines, in particular monoethanolamine, water, thickeners, emulsifier, bodying agents, reactive dyes, solvents, flexing agents, stabilizers and preservatives, is then added to the developer mass in the ratio 1:1. Samples are then taken from the hair dye solution at defined time intervals, neutralized and extracted with solvent, and the content of depot preparation and released aldehyde is determined by means of gas chromatography using an internal and external standard.

[2] = Storage stability in soap formulation; type: physicochemical; conditions: stored in the dark about one month at room temperature
Excerpt: (§1) (Amount after storage/Amount before storage)*100%=Storage stability [%]
The separate samples are then divided into portions.
The soap formulations A to F were stored in the dark for about one-month at room temperature.

[3] = Storage stability in powder laundry detergent; conditions: after one month storage
Excerpt: The storage stability of a fragrance or of a depot preparation is defined by the percentage of substance still present after storage. (Amount after storage/Amount before storage)*100%=Storage stability [%]
For the determination and for the comparison of the storage stability the depot preparation (DP) consisting of one or more acylals and the corresponding aldehydes (AL) are incorporated into separate samples. (SDP and SAL) of the same formulation of a consumer product, such as, for example, laundry detergent, shampoo or soap. The separate samples are then divided into portions. One portion of the sample SDP and SAL is subjected immediately to a suitable extraction and analytical measurement in order to determine the amount of depot preparation or aldehyde prior to storage. In the analytical investigation by, for example, gas chromatography, a suitable standard is used for quantification. The second portion is subjected to storage at elevated temperature for a defined period and then extracted and quantified using the same methods.
The laundry detergents A and B were used for washing or examined analytically both directly and after storage for four weeks.

[4] = Storage stability in hair colorant developer mass; type: physicochemical
Experimental: as §1
The formulation of the developer mass typically comprises water, hydrogen peroxide, acids, such as, for example, phosphoric acid, citric acid etc., thickeners, emulsifiers, preservatives, solvents and further auxiliaries. 1% of DP Example 5 is added to the formulation of the developer mass.
The developer formulation, which comprises 1% of DP Example 5, is stored for one and a half months at room temperature.

[5] = 1 min after mixing developer mass (0.3% each DP) 1:1 with ammoniacal dye solution
[6] = 5 min after mixing developer mass (0.3% each DP) 1:1 with ammoniacal dye solution
[7] = 10 min after mixing developer mass (0.3% each DP) 1:1 with ammoniacal dye solution
[8] = 20 min after mixing developer mass (0.3% each DP) 1:1 with ammoniacal dye solution
[9] = 30 min after mixing developer mass (0.3% each DP) 1:1 with ammoniacal dye solution

Structure (SMILES)	Relative GC content [%] [1, 5] [%]	Relative GC content [%] [1, 6] [%]	Relative GC content [%] [1, 7] [%]	Relative GC content [%] [1, 8] [%]	Relative GC content [%] [1, 9] [%]	Storage stability [%] [2] [%]	also measured
CCCCCCCCCC(C)C=O (stereo not shown) [2-Methylundecanal, reference compound]	2.8	32.8	47.1	20.7	16.4		
CCCCCCC=O [Aldehyde C7, heptanal, reference compound]	1.4	17.1	19.3	12.2	11.4		
CCCCCCCCCC=O [Aldehyde C10, Decanal, reference compound]						32	
O=Cc1ccccc1 [Benzaldehyde, reference compound]						45	
CC(C)(C)c1ccc(CCC=O)cc1 [Bourgeonal, 4-tert-Butyldihydrocinnamaldehyde, reference compound]						27	
CCCC(=O)OC(OC(=O)CCC)C1CC=C(CCC=C(C)C)CC1 (stereo not shown) [DP Example 3, (Butyryloxy) [4-(4-methyl-3-pentenyl)-3-cyclohexen-1-yl]methyl butyrate]							Storage stability [3]: 93%
CCCC(=O)OC(OC(=O)CCC)c1ccccc1 [DP Example 5, (Butyryloxy)(phenyl)methyl butyrate]						93	Stability [%] 0 days ([4]; 1% in developer mass, room temperature, 0 days): 100%; Stability [%] 13 days ([4]; 1% in developer mass, room temperature, 13 days): 100%; Stability [%] 28 days ([4]; 1% in developer mass, room temperature, 28 days): 98%; Stability [%] 42 days ([4]; 1% in developer mass, room temperature, 42 days): 100%; color, odor and analytical stability ([4]; developer mass, one and half months at room temperature): color, odor and analytically stable
CCCC(=O)OC(CCc1ccc(C(C)(C)C)cc1)OC(=O)CCC [DP Example 6, 3-(4-tert-Butylphenyl)-1-(butyryloxy)propyl butyrate]						93	
CCCCCCCCCC(OC(=O)CCCCCC)OC(=O)CCCCCC [DP Example 7, 1-(Heptanoyloxy)decyl heptanoate]						95	
CCCCCCC(OC(C)=O)OC(C)=O [DP Example 8, 1-(Acetyloxy)heptyl acetate]	22.9	0.0	0.0	0.0	0.0		
CC(=O)OC(OC(C)=O)C1CCC(C)=CC1C (stereo not shown) [DP Example 9, (Acetyloxy)(2,4-dimethyl-3-cyclohexen-1-yl)methyl acetate]	28.9	2.5	0.5	0.0	0.0		
CCCCCCCCCC(C)C(OC(C)=O)OC(C)=O (stereo not shown) [DP Example 10, 1-(Acetyloxy)-2-methylundecyl acetate]	48.2	5.1	2.0	0.0	0.0		
CC1=CC(C)C(C=O)CC1 (stereo not shown) [Vertocitral, reference compound]	2.1	33.6	33.6	19.3	15.7		
CC(C)=CCCC1=CCC(C=O)CC1 (stereo not shown) [Vertomugal, 1-Formyl-4-(4-methyl-3-pentenyl)-3-cyclohexene, reference compound]							Storage stability [3]: 34%
